According to PMC5952519, “Screening a repurposing library, the Medicines for Malaria Venture Stasis Box, against Schistosoma mansoni” (Parasites & Vectors, 2018):
Entries after “also recorded” stand apart in the source; their conditions may differ. Where two headings read alike, the source gives them in different places.

Key:
[1] = tested on: newly transformed schistosomula (NTS) of Schistosoma mansoni; assay: In vitro assay on newly transformed schistosomula (NTS), viability scoring by microscopy; type: cell-based
From the text: (§1) The S. mansoni (Liberian strain) life-cycle, is maintained in-house at the Swiss Tropical and Public Health Institute (Swiss TPH), as described before. Biomphalaria glabrata were infected with 6 to 8 S. mansoni miracidia. They were kept in pond water under natural light, temperature and humidity conditions until the infectious stage, the cercariae, started to shed. The cercariae were mechanically transformed to schistosomula, the NTS, using a procedure adapted from Milligan & Jolly. NTS were incubated (37 °C, 5% CO2) until use for 12 to maximum 24 h in M199 medium supplemented with FCS and antibiotics. Adult S. mansoni of both sexes were collected by dissecting the intestinal veins of mice euthanized 7 weeks post-infection. All the adult worms recovered were incubated for maximum one week until use in RPMI medium supplemented with FCS and penicillin-streptomycin.
For in vitro screening on NTS, the parasite suspension was adjusted to 50 NTS/100 μl in supplemented M199 medium and added to the drug dilutions in 96-wells plates (Eppendorf AG, Hamburg, Germany). NTS were initially exposed to a drug concentration of 10 μM (0.1% DMSO). Each drug was tested in duplicate.
Hit compounds identified on NTS progressed into testing on adult worms. Females, males and pairs (3 to 5 worms per well) were exposed to the drug dilution in supplemented RPMI medium. The assays were performed in duplicate in 24-wells plates (Eppendorf AG, Hamburg, Germany). […] Each assay on NTS was performed in triplicate with serial drug dilutions (1:2, range: 10–0.16 μM) and repeated once. […] Each IC50 assay was repeated once. These assays were repeated for the lead compounds in presence of albumin (BSA) at the human physiological concentration of 45 g/l (AlbuMAX II, Gibco). For all in vitro assays (NTS and adults), negative controls containing the highest concentration of DMSO were included. Worms incubated with praziquantel served as positive controls. The parasites were evaluated under an inverted optical microscope over 3 days after drug exposure. Their movement and morphology were assessed and scored as described previously.
(§2) For in vitro assays, the average viability scores between replicates (or individual adult worms) were normalised to the controls and converted into percentage activity (or effect). Drug IC50 values (for NTS or adult worms) were calculated by computing different dose-effect values using CompuSyn2 software (ComboSyn Inc., 2007). The linear correlation coefficient (r) reflects the experimental fit. In this study, r-values > 0.70 were considered acceptable. […] The selectivity index (SI) of each drug was calculated by dividing the CC50 measured on the L6 cells by the IC50 measured on the parasites. For in vivo studies, as previously described, the worm burden reduction [%] was determined by comparing the worm burden of treated and untreated mice. For statistical significance a Kruskal-Wallis test was employed (R version 3.2.2).

adult S. mansoni [2] = assay: In vitro assay on adult S. mansoni worms, viability scoring by microscopy; type: cell-based; settings: Schistosoma mansoni, read-out: Adult IC50
From the text: as §1
(§3) Hit compounds identified on NTS progressed into testing on adult worms. Females, males and pairs (3 to 5 worms per well) were exposed to the drug dilution in supplemented RPMI medium. The assays were performed in duplicate in 24-wells plates (Eppendorf AG, Hamburg, Germany). […] Each IC50 assay was repeated once. These assays were repeated for the lead compounds in presence of albumin (BSA) at the human physiological concentration of 45 g/l (AlbuMAX II, Gibco). For all in vitro assays (NTS and adults), negative controls containing the highest concentration of DMSO were included. Worms incubated with praziquantel served as positive controls. The parasites were evaluated under an inverted optical microscope over 3 days after drug exposure. Their movement and morphology were assessed and scored as described previously.
as §2, with “Drug IC50 values (for NTS or adult worms) were calculated by computing different dose-effect values using CompuSyn2 software (ComboSyn Inc., 2007).” left out

[3] = Cytotoxicity assay on L6 cells (resazurin / Alamar Blue); type: cell-based; settings: rat
Experimental: Rat skeletal myoblast L6 cells (2 × 10^4 cells/ml) were exposed to serial dilutions of the 11 lead compounds (1:3, range: 0.37–90 μM). Podophyllotoxin (PPT, 1:3, range: 2 × 10^-4 –0.05 μg/ml) was used as a positive control. After a 72-hour incubation, resazurin dye (Alamar Blue) was added to the plates. […] Each drug was tested in duplicate and each assay was repeated once.
as §2

MRC5 cells = settings: read-out: MRC5 cells CC50; ref provided by MMV; cited from earlier work
adult S. mansoni [4] = assay: In vitro assay on adult S. mansoni worms in albumin-enriched medium (45 g/l); type: cell-based; settings: Schistosoma mansoni, read-out: Adult IC50 with albumin
Experimental: as §3
as §2, with “Drug IC50 values (for NTS or adult worms) were calculated by computing different dose-effect values using CompuSyn2 software (ComboSyn Inc., 2007).” left out

S. mansoni = assay: In vivo efficacy in mice harbouring a chronic S. mansoni infection (worm burden); design: species or system Schistosoma mansoni; settings: for inhibition in vivo at 200 mg/kg: Schistosoma mansoni
Experimental: (§4) Three weeks old NMRI female mice were used (Charles Rivers, Germany) for in vivo drug efficacy studies. The animals were kept in groups of ten with constant access to food and water. After one week of habituation, mice were sub-cutaneously injected a suspension containing 100 S. mansoni cercariae in phosphate-buffered saline (PBS). The drugs (200 mg/kg single dose) were administered seven weeks post-infection by oral gavage to groups of 4 mice. They were dissolved in tap water with Tween80/ethanol (10%, 70:30). Untreated mice (n = 10) served as control and were dissected 7 weeks post-infection. Treated mice (n = 40) were euthanized with CO2 and dissected between 16 to 18 days post-drug administration. The worms were then collected, sexed and counted.
as §2

[5] = Survival of treated infected mice in the in vivo study; settings: single 200 mg/kg oral dose
Experimental: as §4
Eight compounds had no effect on the worm burden in infected mice (worm burden reduction < 36%).

[6] = Schistosoma mansoni, 24 h; read-out: NTS IC50
[7] = Schistosoma mansoni, 48 h; read-out: NTS IC50
[8] = 72-hour incubation, read-out: L6 cells CC50
[9] = mice, single 200 mg/kg oral dose, 49-day-old adult infection, read-out: WBR (worm burden reduction)
[10] = mice, single 200 mg/kg oral dose, 49-day-old adult infection
[11] = po, read-out: WBR (worm burden reduction), mice, single 200 mg/kg oral dose, 49-day-old adult infection

In the case of `Nc1nc2ccc(Cl)cc2c2nc(-c3ccco3)nn12` [MMV001539], the IC50 [1, 6] is reported as 12.7 µM, the IC50 [1, 7] is reported as 11 µM and the IC50 (adult S. mansoni [2]; 24 h, standard medium) is reported as 28.2 µM. For the same compound, the IC50 (adult S. mansoni [2]; 48 h, standard medium) was 12.3 µM, the CC50 at 72 h [3, 8] was 2.9 µM and the CC50 (MRC5 cells) was 16 µM.
Compound `COc1ccc(NC(=O)c2ccc(-c3ccc(-c4noc(C)n4)cc3C)cc2)cc1N1CCN(C)CC1` [MMV003452] has an IC50 [1, 6] of 4.4 µM, an IC50 [1, 7] of 2.2 µM and an IC50 (adult S. mansoni [2]; 24 h, standard medium) of 1.7 µM. The IC50 (adult S. mansoni [2]; 48 h, standard medium) was 3 µM, the IC50 (adult S. mansoni [4]; 24 h, albumin 45 g/l) was 22.6 µM and the IC50 (adult S. mansoni [4]; 72 h, albumin 45 g/l) was 7.5 µM. The CC50 at 72 h [3] was 3.7 µM, the inhibition in vivo at 200 mg/kg (S. mansoni; [9]) was 12.2% and the “Mean worm burden ± SD” value (S. mansoni; [10]) was 40.5 ± 17.2. The CC50 (MRC5 cells) was 1.9 µM.
For `O=C(O)Cc1cccc(OCCCN(Cc2cccc(C(F)(F)F)c2Cl)CC(c2ccccc2)c2ccccc2)c1` [MMV690466], the “effect on NTS at 10 μM” value ([1]; 10 μM, 48 h) was “high effect; also recorded: high activity”, the IC50 [1, 6] was 14.6 µM and the IC50 [1, 7] was 3.8 µM. It also gave an IC50 (adult S. mansoni [2]; 24 h, standard medium) of 2.9 µM, an IC50 (adult S. mansoni [2]; 48 h, standard medium) of 2.3 µM and an IC50 (adult S. mansoni [4]; 24 h, albumin 45 g/l) of 18.1 µM. For the same compound, the IC50 (adult S. mansoni [4]; 48 h, albumin 45 g/l) was 89.7 µM, the IC50 (adult S. mansoni [4]; 72 h, albumin 45 g/l) was 47.6 µM and the CC50 at 72 h [3, 8] was 1.6 µM. For the same compound, the inhibition in vivo at 200 mg/kg (S. mansoni; [9]) was 35.9%, the “Mean worm burden ± SD” value (S. mansoni; [10]) was 10.3 ± 6.9 and the CC50 (MRC5 cells) was 8.4 µM.
For `Fc1ccc(Cl)cc1-c1nc(Nc2ccncc2)c2nccnc2n1` [MMV690534], the IC50 ([1]; Schistosoma mansoni, 24 h, read-out: NTS IC50) was 11.8 µM, the IC50 ([1]; Schistosoma mansoni, 48 h, read-out: NTS IC50) was 14.3 µM and the IC50 (adult S. mansoni [2]; 24 h) was 17.4 µM. For the same compound, the IC50 (adult S. mansoni [2]; 48 h) was 19.3 µM, the CC50 at 72 h ([3]; L6 skeletal myoblast cells, 72-hour incubation, read-out: L6 cells CC50) was 74.5 µM and the inhibition in vivo at 200 mg/kg (S. mansoni; [11]) was > 50%. The “Mean worm burden ± SD” value (S. mansoni; [10]) was 7.8 ± 7.5 and the CC50 (MRC5 cells) was 12.4 µM.
Compound `CC(C)(Cc1c[nH]c2ccc(Cl)cc12)NCCOc1ccccc1OCC1CC1` [MMV690599] has an IC50 [1, 6] of 10.5 µM, an IC50 [1, 7] of 3.5 µM and an IC50 (adult S. mansoni [2]; 48 h) of 3.3 µM. The IC50 (adult S. mansoni [4]; 24 h) was 23.6 µM, the IC50 (adult S. mansoni [4]; 48 h) was 19.1 µM and the IC50 (adult S. mansoni [4]; 72 h) was 15.9 µM. For the same compound, the CC50 at 72 h [3, 8] was 3.4 µM, the inhibition in vivo at 200 mg/kg (S. mansoni; [11]) was 3.2% and the “Mean worm burden ± SD” value (S. mansoni; [10]) was 44.7 ± 29.6. For the same compound, the CC50 (MRC5 cells) was 2 µM.
Compound `Cc1ccc(C(=O)N(CCCN)[C@@H](c2nc3cc(Cl)ccc3c(=O)n2Cc2ccccc2)C(C)C)cc1` [MMV690646, Ispinesib] has an IC50 [1, 6] of 3 µM, an IC50 [1, 7] of 1.1 µM and an IC50 (adult S. mansoni [2]; 24 h, standard medium) of 3.7 µM. For the same compound, the IC50 (adult S. mansoni [4]; 24 h, albumin 45 g/l) was 32 µM, the IC50 (adult S. mansoni [4]; 48 h, albumin 45 g/l) was 122 µM and the IC50 (adult S. mansoni [4]; 72 h, albumin 45 g/l) was 33.6 µM. The “death of treated mice” value [5] was “died prematurely; also recorded: death of the mice” and the CC50 (MRC5 cells) was 0.2 µM.
Work on `CC#CC(=O)Nc1ccc2ncnc(Nc3cccc(Br)c3)c2c1` [MMV690684] yielded an IC50 [1, 6] of 4 µM, an IC50 [1, 7] of 3.1 µM and an IC50 (adult S. mansoni [2]; 24 h, standard medium) of 4.9 µM. The IC50 (adult S. mansoni [2]; 48 h, standard medium) was 4.7 µM, the IC50 (adult S. mansoni [4]; 24 h, albumin 45 g/l) was 76.8 µM and the IC50 (adult S. mansoni [4]; 48 h, albumin 45 g/l) was 14.4 µM. For the same compound, the IC50 (adult S. mansoni [4]; 72 h, albumin 45 g/l) was 7.7 µM, the CC50 at 72 h [3] was 7 µM and the inhibition in vivo at 200 mg/kg (S. mansoni; [9]) was 10%. The “Mean worm burden ± SD” value (S. mansoni; [10]) was 41.5 ± 16.5 and the CC50 (MRC5 cells) was 7 µM.
`CNCc1ccc(C)c(NC(=O)c2ccc(Nc3nc(-c4ccccc4)c4ccccc4n3)cc2)c1` [MMV690732] gave an IC50 [1, 6] of 29.5 µM, an IC50 [1, 7] of 6.3 µM and an IC50 (adult S. mansoni [2]; 24 h, standard medium) of 4.9 µM. For the same compound, the IC50 (adult S. mansoni [2]; 48 h, standard medium) was 2.9 µM, the IC50 (adult S. mansoni [4]; 24 h, albumin 45 g/l) was 62.8 µM and the IC50 (adult S. mansoni [4]; 48 h, albumin 45 g/l) was 181 µM. The IC50 (adult S. mansoni [4]; 72 h, albumin 45 g/l) was 54.1 µM, the CC50 at 72 h [3] was 2.3 µM and the inhibition in vivo at 200 mg/kg (S. mansoni; [9]) was 0%. The “Mean worm burden ± SD” value (S. mansoni; [10]) was 47.5 ± 24.3 and the CC50 (MRC5 cells) was 1.9 µM.
For `CCOc1cc2ncc(C#N)c(Nc3ccc(F)c(Cl)c3)c2cc1NC(=O)/C=C/CN(C)C` [MMV690765, Pelitinib], the IC50 [1, 6] was 914 µM, the IC50 [1, 7] was > 1 µM and the IC50 (adult S. mansoni [2]; 24 h, standard medium) was 4.2 µM. For the same compound, the IC50 (adult S. mansoni [2]; 48 h, standard medium) was 3.4 µM, the IC50 (adult S. mansoni [4]; 24 h, albumin 45 g/l) was 652 µM and the IC50 (adult S. mansoni [4]; 48 h, albumin 45 g/l) was 226 µM. It also gave an IC50 (adult S. mansoni [4]; 72 h, albumin 45 g/l) of 124 µM, a CC50 at 72 h [3] of 11.8 µM and an inhibition in vivo at 200 mg/kg (S. mansoni; [9]) of 0%. The “Mean worm burden ± SD” value (S. mansoni; [10]) was 84.0 ± 56.4 and the CC50 (MRC5 cells) was 0.7 µM.
In the case of `CC[C@@H]1C(=O)N(C)c2cnc(Nc3ccc(C(=O)NC4CCN(C)CC4)cc3OC)nc2N1C1CCCC1` [MMV690787], the inhibition in vivo at 200 mg/kg (S. mansoni; [9]) is given as 0%, the “Mean worm burden ± SD” value (S. mansoni; [10]) is given as 48.3 ± 21.6 and the CC50 (MRC5 cells) is given as 0.1 µM.
